For one test, the system named is blood platelets. In words: Inhibition of blood platelet aggregation (aggregometer, ADP). It counts as cell-based, human (healthy testees). Conditions: Platelet, 0.05 h; human PRP, ADP 2 to 4 μM, 3 min incubation, 37° C.; read-out: IC50 (Inhibition of blood platelet aggregation). Summed up: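 Citrated human PRP (0.38% sodium citrate final; donors drug-free ≥8 days) preincubated 3 min with test substance at 37 °C under stirring, then ADP 2 to 4 μM added; aggregation followed by light transmission against PPP. IC50 from linear regression of % inhibition vs log concentration.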

The next test has as its system PAI-1. In words: Inhibition of plasminogen activator inhibitor (PAI-1) from blood platelets (fibrinolytic activity). Conditions: 50 μM, 60 minutes. Type of test: cell-based, human. The procedure:
Compounds according to the invention were tested for their inhibition of plasminogen activator inhibitor (PAI). An established thrombus comprises aggregated platelets cohered by fibrin. The organism has a fibrinolyric system for maintaining normal physiological conditions. Endogenous plasminogen is activated to plasmin (fibrinolysin, that is a proteolytic enzyme decomposing fibrin) by means of a tissue plasminogen activator (t-PA). The platelets include the enzyme PAI-1 inhibiting the activation of plasminogen to plasmin, and thus also the decomposition of fibrin.
A general stimulation of the fibrinolytic system can cause serious hemostatic side effects (haemorrhages). A specific inhibition of PAI-1 induces an increased fibrinolysis in areas with many platelets, which is exactly the case in thrombi. As a result a thrombolytic effect is obtained.
Human PRP prepared by slight centrifugation as previously mentioned is used, but at a low temperature (4° C.). By incubation of PRP (1 ml in a plastic tube) during a slight shaking at 37° C. the PAI-1 activity is liberated, said PAI-1 activity being measured spectrophotometrically by means of a two-step procedure using commercial kits (Spectrolyse™/fibrin kit from BIOPOOL, Sweden).
The PAI-1 activity of the control PRP and PRP incubated with each of 6 compounds according to the invention and the reference substance sodium niroprusside (NNP) (50 μM of each for 60 minutes) appear from Table 6.

The target in test [1] is T1, soluble guanylate cyclase (Homo sapiens, UniProt Q02153).
T1 construct: The guanylate cyclase activity in the supernatant after incubation with and without the test substance; endogenous in cells; host or cells: human blood platelets, supernatant of homogenate
T1 sequence (Q02153 1-619): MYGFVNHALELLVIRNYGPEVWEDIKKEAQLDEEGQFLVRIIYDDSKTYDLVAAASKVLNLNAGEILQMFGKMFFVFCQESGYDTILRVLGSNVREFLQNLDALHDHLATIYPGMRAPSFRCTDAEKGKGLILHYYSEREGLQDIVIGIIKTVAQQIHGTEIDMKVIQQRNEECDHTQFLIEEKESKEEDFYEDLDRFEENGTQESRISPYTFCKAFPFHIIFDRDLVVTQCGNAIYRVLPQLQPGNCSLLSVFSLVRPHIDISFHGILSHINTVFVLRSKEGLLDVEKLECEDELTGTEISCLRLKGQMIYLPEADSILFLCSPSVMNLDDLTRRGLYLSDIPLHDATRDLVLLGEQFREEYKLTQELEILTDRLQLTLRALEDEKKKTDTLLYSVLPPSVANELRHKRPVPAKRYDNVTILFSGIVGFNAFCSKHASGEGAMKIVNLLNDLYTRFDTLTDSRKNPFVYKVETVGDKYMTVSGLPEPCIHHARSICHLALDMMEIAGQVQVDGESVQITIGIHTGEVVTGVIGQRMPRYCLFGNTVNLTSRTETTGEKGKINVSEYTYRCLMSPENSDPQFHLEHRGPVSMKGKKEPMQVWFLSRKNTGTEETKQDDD
T1 sequence (Q02108 1-690 partner): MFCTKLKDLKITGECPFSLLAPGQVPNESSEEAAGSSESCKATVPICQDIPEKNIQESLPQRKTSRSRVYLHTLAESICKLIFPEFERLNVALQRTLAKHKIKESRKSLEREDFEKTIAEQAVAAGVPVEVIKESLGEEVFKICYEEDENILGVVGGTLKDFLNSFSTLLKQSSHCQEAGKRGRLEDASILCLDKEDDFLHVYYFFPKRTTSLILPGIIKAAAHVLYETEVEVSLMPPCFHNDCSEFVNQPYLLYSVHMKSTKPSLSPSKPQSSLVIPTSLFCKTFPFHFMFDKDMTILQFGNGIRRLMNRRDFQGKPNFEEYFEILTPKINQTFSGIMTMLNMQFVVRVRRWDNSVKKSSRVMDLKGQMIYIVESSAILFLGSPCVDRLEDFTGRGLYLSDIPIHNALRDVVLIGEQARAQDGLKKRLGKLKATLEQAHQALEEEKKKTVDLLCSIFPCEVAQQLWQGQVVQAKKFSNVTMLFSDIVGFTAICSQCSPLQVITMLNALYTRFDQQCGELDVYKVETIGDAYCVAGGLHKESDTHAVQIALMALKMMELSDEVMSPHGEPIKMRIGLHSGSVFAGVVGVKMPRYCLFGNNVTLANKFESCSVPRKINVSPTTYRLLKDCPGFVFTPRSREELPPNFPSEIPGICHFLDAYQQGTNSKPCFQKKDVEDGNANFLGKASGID
Briefly: Stimulation of guanylate cyclase from blood platelets (RIA). Type of test: biochemical. Particulars: 37° C.

On to `COc1ccc(Cl)cc1-[n+]1noc([NH-])n1` [Example 20], for which the IC50 (as a rule, the point on the concentration scale where inhibition reaches its midpoint) in the test with blood platelets was determined as 180 nM. The “% Inhibition of PAI-1 activity” value in the test on PAI-1 (compared to control) is reported as 35%. Moreover, in the test with PAI-1 (human PRP, control 3.24), the PAI-1 activity was 2.09 U/10^8 platelets. For the same compound, the Guanylate cyclase activity in test [1] (0.01 μM) is 2225 pmole c-GMP/mg prot. × 15 minutes; in test [1] (10 μm (so in the source)), 47298 pmole c-GMP/mg prot. × 15 minutes.

Source of the values: US5405857A, “3-substituted 1,2,3,4,-oxatriazole-5-imine compounds, a process for the preparation thereof and a pharmaceutical preparation containing said compounds” (A/S GEA Farmaceutisk Fabrik, priority 1991, dated 1995).
